Assay results: PMC9163038 (Scientific Reports, 2022)
Like-named read-outs stand apart in the source and are kept apart here. Blank lines part the entries; values can stand above or below the molecule they belong to. Where a SMILES comes first, the peptide text is derived from it. Bridges are numbered along the chain shown (N, C = ends).

Experiments:
mouse CCK2R = biological target: T1, mouse CCK2R (Mus musculus, UniProt P56481); test: Inositol-1-phosphate (IP1) accumulation assay (HTRF) in HEK293 cells transiently expressing CCK2R; conditions: for Antagonism of CCK-8-induced IP1 formation: antagonist 500 nM, preincubated 30 min at 37 °C, CCK-8 10 nM, Fig. S1b, n = 3-5; for IP1 formation (fold difference over baseline): positive control, n = 3-4; for Emax: HEK293, read-out: Maximum efficacy (Emax) at the CCK2R
T1 sequence (P56481 1-453): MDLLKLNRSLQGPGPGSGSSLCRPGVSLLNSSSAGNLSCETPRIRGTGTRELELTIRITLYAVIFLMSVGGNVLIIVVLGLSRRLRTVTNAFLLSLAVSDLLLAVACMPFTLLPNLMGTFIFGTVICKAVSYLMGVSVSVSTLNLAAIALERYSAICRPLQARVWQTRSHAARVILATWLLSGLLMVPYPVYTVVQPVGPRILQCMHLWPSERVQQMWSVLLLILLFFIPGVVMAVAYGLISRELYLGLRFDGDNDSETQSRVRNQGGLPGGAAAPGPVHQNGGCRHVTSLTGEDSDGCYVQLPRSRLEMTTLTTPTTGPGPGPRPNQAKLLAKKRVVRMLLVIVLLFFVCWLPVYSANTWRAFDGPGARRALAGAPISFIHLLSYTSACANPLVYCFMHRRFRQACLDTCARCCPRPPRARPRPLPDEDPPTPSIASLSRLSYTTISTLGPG
Method: Human embryonic kidney (HEK293) cells (Ref.[31]) were maintained in a fresh Dulbecco’s modified Eagle’s medium supplemented with 10% fetal bovine serum, 100 U/mL penicillin, and 100 µg/mL streptomycin in a humidified atmosphere of 5% CO2 at 37 °C. 2 mL of cell suspension was poured into each well of a 6-well plate and incubated overnight at 37 °C. After reaching to a confluency of 70–80%, the cells were transfected with a plasmid encoding EGFP-tagged CCK2R using the jetPRIME transfection reagent according to manufacturer’s instructions (Polyplus-transfection, USA).
The receptor-mediated activation of Gq-dependent signaling was measured using a homogenous time-resolved fluorescence (HTRF) based inositol-1-phosphate (IP1) assay kit (Cisbio, France). Approximately 3-6 × 10^4 HEK293 cells expressing the CCK2R were seeded into each well of a 96- or 384-well plate and incubated overnight at 37 °C. […] Antagonists YM-022 and LY225910 (500 nM or 1 µM, both Sigma -Aldrich, Austria) were preincubated at 37 °C for 30 min. After adding IP1-d2 conjugate and anti-IP1 Eu Cryptate according to manufacturers’ instructions, the plate was incubated at room temperature for 3 h. The HTRF measurement was carried out using the FlexStation 3 multi-mode microplate reader with excitation at 330 nm and emissions at 620 and 665 nm.
All experiments were performed in triplicate, analyzed using the GraphPad prism software (GraphPad Software, USA) and expressed as mean ± SD (standard deviation). Pharmacological data of concentration response curves were normalized to the maximal response of CCK-8 detected at the highest concentration. […] Single concentration efficacy data were normalized to baseline (assay buffer) and data were expressed as IP1 formation (fold difference over baseline).

[1] = biological target: T2, mouse cholecystokinin-2 receptor, EGFP-tagged (mouse) (UniProt P56481)
T2 sequence: T1 sequence (P56481 1-453)

HEK293 cells = test: Cell viability assay (Cell Counting Kit-8); conditions: 2 h incubation
Method: Effect on cell viability of plant extract was measured against the HEK293 cell line using the Cell Counting Kit-8 (VitaScientific, USA). Briefly, 100 µL of medium containing 1 × 10^4 cells was seeded in each well of a 96-well plate and incubated at 37 °C for 24 h. […] Finally, 10 µL of the kit reagent (final concentration of 10%, v/v) was added into each well and incubated at 37 °C for 3 h. Absorbance was measured at 450 nm using the FlexStation 3 multi-mode microplate reader (Molecular Devices, USA). Triton X-100 and medium were used as positive and negative controls, respectively. The cell viability (CV) percentage was calculated using the following equation: CV (%) = (AS/AC) × 100, whereas AS and AC are related to the absorbance of sample and negative control at 450 nm.

[2] = biological target: T2, mouse cholecystokinin-2 receptor, EGFP-tagged (mouse); remark: listed apart in the source

Molecule: Cc1cccc(NC(=O)N[C@@H]2N=C(c3ccccc3)c3ccccc3N(CC(=O)c3ccccc3C)C2=O)c1 [YM-022, (R)-1-[2,3-dihydro-1-(2'-methylphenacyl)-2-oxo-5-phenyl-1H-1,4-benzodiazepin-3-yl]-3-(3-methylphenyl) urea]
Antagonism of CCK-8-induced IP1 formation (mouse CCK2R): significant inhibition of the IP1 formation

Molecule: CSCC[C@H](NC(=O)[C@H](Cc1ccc(OS(=O)(=O)O)cc1)NC(=O)[C@@H](N)CC(=O)O)C(=O)NCC(=O)N[C@@H](Cc1c[nH]c2ccccc12)C(=O)N[C@@H](CCSC)C(=O)N[C@@H](CC(=O)O)C(=O)N[C@@H](Cc1ccccc1)C(N)=O [CCK-8, cholecystokinin-8]
IP1 formation (fold difference over baseline) (mouse CCK2R; CCK-8 at 1 nM): 0.09 fold difference over baseline
IP1 formation (fold difference over baseline) (mouse CCK2R; CCK-8 at 3 nM): 0.31 fold difference over baseline
EC50 (mouse CCK2R; EC50 of CCK-8 alone, CCK-8 alone, Fig. 5b experiment, n = 3): 12.9 nM
Emax (mouse CCK2R): 100%
EC50 (mouse CCK2R; SD): 11.5 ± 1.5 nM

Molecule: CC(C)Oc1cccc(-n2c(CCc3c[nH]c4ccc(Br)cc34)nc3ccccc3c2=O)c1 [LY225910]
Antagonism of CCK-8-induced IP1 formation (mouse CCK2R): did not displace the effects of endogenous ligand CCK-8

EC50 of IP1 accumulation, CCK-8 alone (control curve of the co-treatment experiment, Fig. 5b) [1]: 12.9 nM
Molecule: cholecystokinin-8 (from UniProt P06307 96-103) (peptide)

Molecule: CC[C@H](C)[C@@H]1NC(=O)[C@@H]2CSSC[C@@H]3NC(=O)[C@H](C(C)C)NC(=O)[C@H](CCCCN)NC(=O)[C@H](CCCCN)NC(=O)[C@H](CCCCN)NC(=O)[C@@H]4CSSC[C@H](NC(=O)[C@H](CO)NC(=O)[C@H](CCC(=O)O)NC(=O)CNC(=O)[C@H](CSSC[C@H](NC(=O)CNC(=O)[C@H]([C@@H](C)CC)NC(=O)[C@H](C(C)C)NC(=O)[C@H]([C@@H](C)O)NC(=O)[C@H](CO)NC1=O)C(=O)N[C@@H](CO)C(=O)N4)NC(=O)[C@@H]1CCCN1C(=O)[C@H]([C@@H](C)CC)NC(=O)[C@H](C(C)C)NC(=O)CNC(=O)[C@H](CC(N)=O)NC(=O)[C@H](CCCNC(=N)N)NC(=O)[C@H](Cc1ccc(O)cc1)NC3=O)C(=O)N[C@@H](C(C)C)C(=O)N[C@@H](Cc1ccccc1)C(=O)N[C@@H]([C@@H](C)CC)C(=O)N1CCC[C@H]1C(=O)N2 [caripe 11] (cyclo(CGESCVFIPCISTVIGCSCKKKVCYRNGVIP); disulfide 1-17, 5-19, 10-24)
Effect on HEK cell viability (HEK293 cells; caripe 11 100 µM): slightly decreased HEK cell viability
Effect on HEK cell viability (HEK293 cells; caripe 11 ≤ 30 µM): did not have a pronounced effect
Emax (mouse CCK2R; SD): 71 ± 6.9%
EC50 (mouse CCK2R; SD): 8500 ± 1700 nM
Reduction of the EC80 effect of CCK-8 (mouse CCK2R; caripe 11 30 µM co-incubated with CCK-8 70 nM (EC80), Fig. S1a, n = 2): ~ 20%
Basal activity of the CCK-8 concentration-response curve upon co-treatment (mouse CCK2R; co-treatment with caripe 11 10 µM, increased from 0, Fig. 5b, n = 3): 17%

EC50 of IP1 accumulation (HTRF) in HEK293 cells transiently expressing CCK2R [2]: 8500 nM
Emax of IP1 accumulation, normalised to the maximal response of CCK-8 [2]: 71%
reduction of the IP1 effect of 70 nM (EC80) CCK-8 by co-incubated caripe 11 (3, 10, 30 µM); value at 30 µM [1]: 20%
B1: caripe 11 (peptide)
peptide: cyclo(GVIPCGESCVFIPCISTVIGCSCKKKVCYRN)
modifications: also: three disulfide bonds, pairing not given here
